Structures can show the parent of a compound that is named as a salt.
target: T1, Syk tyrosine kinase (Homo sapiens, UniProt P43405); test: Test for Syk tyrosine kinase inhibitory activity (ELISA); format: biochemical; details: Syk tyrosine kinase (Carna Biosciences), 25 μM ATP in substrate solution, 30° C. 1 hour, n=2; read-out: Evaluation (IC50, concentration inhibiting the tyrosine kinase activity at 50%)
T1 construct: purchased Carna Biosciences, Inc
Outline: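 Syk kinase (0.025 nM stock before addition) with 625 nM biotinylated peptide and 25 μM ATP (substrate-solution levels) in Tris pH 7.5, MgCl2, DTT; 1 h at 30 °C on streptavidin plates. Phosphotyrosine detected by HRP anti-pTyr antibody, TMB, A450; IC50 by non-linear regression.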

Compound | IC50
N#Cc1ccnc(Nc2cc(C3CC3)cc(-c3ccc(N4CC[C@@H](N)C4)nc3)n2)c1 [Example 49, 2-({6′-[(3R)-3-aminopyrrolidin-1-yl]-4-cyclopropyl-2,3′-bipyridin-6-yl}amino)pyridine-4-carbonitrile dihydrochioride] | 5 to 50 nM
N#Cc1ccnc(Nc2cc(C3CC3)cc(-c3ccc(N4CCCC4=O)nc3)n2)c1 [Example 53, 2-{[4-cyclopropyl-6′-(2-oxopyrrolidin-1-yl)-2,3′-bipyridin-6-yl]amino}pyridine-4-carbonitrile hydrochloride] | 50 to 500 nM
N#Cc1ccnc(Nc2cc(C3CC3)cc(-c3ccc4cn[nH]c4c3)n2)c1 [Example 55, 2-{[4-cyclopropyl-6-(1H-indazol-6-yl)pyridin-2-yl]amino}pyridine-4-carbonitrile hydrochloride] | 5 to 50 nM
N#Cc1ccnc(Nc2cc(C3CC3)cc(-c3ccc(N4CCN(C(N)=O)CC4)nc3)n2)c1 [Example 57, 4-{6-[(4-cyanopyridin-2-yl)amino]-4-cyclopropyl-2,3′-bipyridin-6′-yl}piperazine-1-carboxamide hydrochloride] | 5 to 50 nM
CNC(=O)CN1CCN(c2ccc(-c3cc(C4CC4)cc(Nc4cc(C#N)ccn4)n3)cn2)CC1 [Example 63, 2-(4-{6-[(4-cyanopyridin-2-yl)amino]-4-cyclopropyl-2,3′-bipyridin-6′-yl}piperazin-1-yl)-N-methylacetamide hydrochloride] | 50 to 500 nM
N#Cc1ccnc(Nc2cc(C3CC3)cc(-c3ccc(N4CCC(NC(N)=O)CC4)nc3)n2)c1 [Example 64, 1-(1-{6-[(4-cyanopyridin-2-yl)amino]-4-cyclopropyl-2,3′-bipyridin-6′-yl}piperidin-4-yl)urea hydrochloride] | 5 to 50 nM
N#Cc1ccnc(Nc2cc(C3CC3)cc(-c3ccc(NC4CCN(C(N)=O)CC4)nc3)n2)c1 [Example 65, 4-({6-[(4-cyanopyridin-2-yl)amino]-4-cyclopropyl-2,3′-bipyridin-6′-yl}amino)piperidine-1-carboxamide hydrochloride] | 5 to 50 nM
N#Cc1ccnc(Nc2cc(C3CC3)cc(-c3ccc(N4CCN(C(N)=O)CC4=O)nc3)n2)c1 [Example 67, 4-{6-[(4-cyanopyridin-2-yl)amino]-4-cyclopropyl-2,3′-bipyridin-6′-yl}-3-oxopiperazine-1-carboxamide hydrochloride] | 50 to 500 nM
N#Cc1ccnc(Nc2cc(C3CC3)cc(-c3cncc(N4CCS(=O)(=O)CC4)c3)n2)c1 [Example 68, 2-{[4-cyclopropyl-5′-(1,1-dioxidethiomorpholin-4-yl)-2,3′-bipyridin-6-yl]amino}pyridine-4-carbonitrile hydrochloride] | 50 to 500 nM
N#Cc1ccnc(Nc2cc(C3CC3)cc(-c3ccc(CO)nc3)n2)c1 [Example 71, 2-{[4-cyclopropyl-6′-(hydroxymethyl)-2,3′-bipyridin-6-yl]amino}pyridine-4-carbonitrile hydrochloride] | 50 to 500 nM
N#Cc1ccnc(Nc2cc(C3CC3)cc(-c3cncc(CN4CCNC(=O)C4)c3)n2)c1 [Example 73, 2-({4-cyclopropyl-5′-[(3-oxopiperazin-1-yl)methyl]-2,3′-bipyridin-6-yl}amino)pyridine-4-carbonitrile hydrochloride] | 5 to 50 nM
N#Cc1ccnc(Nc2cc(C3CC3)cc(-c3cncc(NC4CCN(C(N)=O)CC4)c3)n2)c1 [Example 77, 4-({6-[(4-cyanopyridin-2-yl)amino]-4-cyclopropyl-2,3′-bipyridin-5′-yl}amino)piperidine-1-carboxamide hydrochloride] | 5 to 50 nM
N#Cc1ccnc(Nc2cc(C3CC3)cc(-c3cccc(N4CCCN(C(N)=O)CC4)c3)n2)c1 [Example 78, 4-(3-{6-[(4-cyanopyridin-2-yl)amino]-4-cyclopropylpyridin-2-yl}phenyl)-1,4-diazepane-1-carboxamide hydrochloride] | 5 to 50 nM

Second part, the molecule after the results:

IC50 | Compound
50 to 500 nM | N#Cc1ccnc(Nc2cc(C3CC3)cc(-c3ccc(N4CCC[C@@H]4C(N)=O)nc3)n2)c1 [Example 47, (R)-1-{6-[(4-cyanopyridin-2-yl)amino]-4-cyclopropyl-2,3′-bipyridin-6′-yl}pyrrolidine-2-carboxamide hydrochloride]
50 to 500 nM | N#Cc1ccnc(Nc2cc(C3CC3)cc(-c3ccc(N4CCC[C@H]4CO)nc3)n2)c1 [Example 48, 2-{(4-cyclopropyl-6′-[(2S)-2-(hydroxymethyl)pyrrolidin-1-yl]-2,3′-bipyridin-6-yl}amino)pyridine-4-carbonitrile hydrochloride]
50 to 500 nM | CC(=O)N[C@@H]1CCN(c2ccc(-c3cc(C4CC4)cc(Nc4cc(C#N)ccn4)n3)cn2)C1 [Example 50, N-[(3R)-1-{6-[(4-cyanopyridin-2-yl)amino]-4-cyclopropyl-2,3′-bipyridin-6′-yl}pyrrolidin-3-yl]acetamide hydrochloride]
50 to 500 nM | N#Cc1ccnc(Nc2cc(C3CC3)cc(-c3ccc(N4CC[C@@H](F)C4)nc3)n2)c1 [Example 51, 2-({4-cyclopropyl-6′-[(3R)-3-fluoropyrrolidin-1-yl]-2,3′-bipyridin-6-yl}amino)pyridine-4-carbonitrile hydrochloride]
50 to 500 nM | CN(C)[C@@H]1CCN(c2ccc(-c3cc(C4CC4)cc(Nc4cc(C#N)ccn4)n3)cn2)C1 [Example 52, 2-({4-cyclopropyl-6′-[(3R)-3-(dimethylamino)pyrrolidin-1-yl]-2,3′-bipyridin-yl}amino)pyridine-4-carbonitrile hydrochloride]
50 to 500 nM | Cc1ccc(-c2cc(C3CC3)cc(Nc3cc(C#N)ccn3)n2)cn1 [Example 54, 2-[(4-cyclopropyl-6′-methyl-2,3′-bipyridin-6-yl)amino]pyridine-4-carbonitrile hydrochloride]
5 to 50 nM | N#Cc1ccnc(Nc2cc(C3CC3)cc(-c3ccc4[nH]ncc4c3)n2)c1 [Example 56, 2-{[4-cyclopropyl-6-(1H-indazol-5-yl)pyridin-2-yl]amino}pyridine-4-carbonitrile hydrochloride]
5 to 50 nM | CS(=O)(=O)N1CCN(c2ccc(-c3cc(C4CC4)cc(Nc4cc(C#N)ccn4)n3)cn2)CC1 [Example 58, 2-({4-cyclopropyl-6′-[4-(methanesulfonyl)piperazin-1-yl]-2,3′-bipyridin-6-yl}amino)pyridine-4-carbonitrile hydrochloride]
5 to 50 nM | CC(=O)N1CCN(c2ccc(-c3cc(C4CC4)cc(Nc4cc(C#N)ccn4)n3)cn2)CC1 [Example 59, 2-{[6′-(4-acetylpiperazin-1-yl)-4-cyclopropyl-2,3′-bipyridin-6-yl]amino}pyridine-4-carbonitrile hydrochloride]
5 to 50 nM | N#Cc1ccnc(Nc2cc(C3CC3)cc(-c3ccc(N4CCC(C(=O)O)CC4)nc3)n2)c1 [Example 60, 1-{6-[(4-cyanopyridin-2-yl)amino]-4-cyclopropyl-2,3′-bipyridin-6′-yl}piperidine-4-carboxylic acid hydrochloride]
50 to 500 nM | N#Cc1ccnc(Nc2cc(C3CC3)cc(-c3ccc(N4CCC(C(N)=O)CC4)nc3)n2)c1 [Example 61, 1-{6-[(4-cyanopyridin-2-yl)amino]-4-cyclopropyl-2,3′-bipyridin-6′-yl}piperidine-4-carboxamide hydrochloride]
5 to 50 nM | N#Cc1ccnc(Nc2cc(C3CC3)cc(-c3ccc(N4CCC(C(N)=O)(c5ccc(F)cc5)CC4)nc3)n2)c1 [Example 62, 1-{6-[(4-cyanopyridin-2-yl)amino]-4-cyclopropyl-2,3′-bipyridin-6′-yl}-4-(4-fluorophenyl)piperidine-4-carboxamide hydrochloride]
50 to 500 nM | N#Cc1ccnc(Nc2cc(C3CC3)cc(-c3ccc(N4CCNCC4=O)nc3)n2)c1 [Example 66, 2-{[4-cyclopropyl-6′-(2-oxopiperazin-1-yl)-2,3′-bipyridin-6-yl]amino}pyridine-4-carbonitrile hydrochloride]
5 to 50 nM | N#Cc1ccnc(Nc2cc(C3CC3)cc(-c3cncc(N4CCCN(C(N)=O)CC4)c3)n2)c1 [Example 69, 4-{6-[(4-cyanopyridin-2-yl)amino]-4-cyclopropyl-2,3′-bipyridin-5′-yl}-1,4-diazepane-1-carboxamide hydrochloride]
50 to 500 nM | N#Cc1ccnc(Nc2cc(C3CC3)cc(-c3ccc(CN4CCNC(=O)C4)nc3)n2)c1 [Example 70, 2-({4-cyclopropyl-6′-[(3-oxopiperazin-1-yl)methyl]-2,3′-bipyridin-6-yl}amino)pyridine-4-carbonitrile hydrochloride]
5 to 50 nM | N#Cc1ccnc(Nc2cc(C3CC3)cc(-c3ccc(CN4CCS(=O)(=O)CC4)nc3)n2)c1 [Example 72, 2-({4-cyclopropyl-6′-[(1,1-dioxidethiomorpholin-4-yl)methyl]-2,3′-bipyridin-6-yl}amino)pyridine-4-carbonitrile hydrochloride]
5 to 50 nM | N#Cc1ccnc(Nc2cc(C3CC3)cc(-c3cncc(CN4CCS(=O)(=O)CC4)c3)n2)c1 [Example 74, 2-({4-cyclopropyl-5′-[(1,1-dioxidethiomorpholin-4-yl)methyl]-2,3′-bipyridin-6-yl}amino)pyridine-4-carbonitrile hydrochloride]
5 to 50 nM | N#Cc1ccnc(Nc2cc(C3CC3)cc(-c3cncc(CN4CCCN(C(N)=O)CC4)c3)n2)c1 [Example 75, 4-({6-[(4-cyanopyridin-2-yl)amino]-4-cyclopropyl-2,3′-bipyridin-5′yl}methyl)-1,4-diazepane-1-carboxamide hydrochloride]
5 to 50 nM | N#Cc1ccnc(Nc2cc(C3CC3)cc(-c3ccnc(N4CCCN(C(N)=O)CC4)c3)n2)c1 [Example 76, 4-{6-[(4-cyanopyridin-2-yl)amino]-4-cyclopropyl-2,4′-bipyridin-2′-yl}-1,4-diazepane-1-carboxamide hydrochloride]
